As a reminder, the EC50 is the concentration needed to bring the measured effect to its halfway point. A lower EC50 goes with higher potency in that assay.

This is an account of results in patent US11136312B2, “3,4,5-trisubstituted-1,2,4-triazoles and 3,4,5-trisubstituted-3-thio-1,2,4-triazoles and uses thereof” (Board of Trustees of Southern Illinois University, priority 2017, dated 2021).

The target of assay [1] is human somatostatin receptor SSTR3 (Homo sapiens (Human), UniProt P32745). Description: Competitive radioligand binding, 125I-Tyr-SRIF 14, membrane preparations. The settings on record: competitive binding vs 125I-Tyr-SRIF 14, human SSTR3 membranes; read-out: SST3. The method, then: (§1) Competitive radioligand binding experiments were performed using MEMBRANE TARGET Systems (Perkin-Elmer, Boston, Mass.) for human somatostatin receptors: SSTR1 (ES-520-M400UA), SSTR2A (ES-521-M400UA), SSTR3 (ES523-M400UA), SSTR4 (ES-524-M400UA) and SSTR5 (ES-522-M400UA) receptors. (See Table 1). Respective membrane receptor preparations were prepared in assay buffer (25 mM HEPES, 10 mM MgCl2, 1 mM CaCl2, 0.5% BSA, pH=7.4) at a 1:150 dilution. Binding assays were performed using 1251-Tyr-SRIF 14 (Perkin-Elmer, NEX 3890) dissolved in 1 mM HCl. Binding assays were performed in triplicate for each concentration of ligand in a total volume of 200 μL radioligand (25 μL ligand, 25 μL radioligand, 150 μL receptors) and incubated at room temperature for 90 minutes using a shaking table. Binding was terminated by filtration through GF/B glass fiber filters that were presoaked in 0.5% polyethyleneimine for a minimum of 4 hours. Filters were washed 9× with 1000 μL ice cold wash buffer (50 mM Tris-HCl, pH=7.4, 0.2% BSA). Filters were scored, transferred into plastic test tubes and counted in a gamma counter (Wizard2, Perkin-Elmer). Determination of the Ki for each compound was performed using non-linear regression with GraphPad PRISM-5 software (GraphPad Software, Inc., La Jolla, Calif.).

The target in assay [2] is human somatostatin receptor SSTR2A (Homo sapiens (Human), UniProt P30874). Described as above. The conditions noted are these: competitive binding vs 125I-Tyr-SRIF 14, human SSTR2A membranes; read-out: SST2. On the procedure: as §1, with “Respective” for “Competitive radioligand binding experiments were performed using MEMBRANE TARGET Systems (Perkin-Elmer, Boston, Mass.) for human somatostatin receptors: SSTR1 (ES-520-M400UA), SSTR2A (ES-521-M400UA), SSTR3 (ES523-M400UA), SSTR4 (ES-524-M400UA) and SSTR5 (ES-522-M400UA) receptors. (See Table 1). Respective”, “Binding assays were performed using 1251-Tyr-SRIF 14 (Perkin-Elmer, NEX 3890) dissolved in 1 mM HCl.” left out

The target in assay [3] is human somatostatin receptor SSTR1 (Homo sapiens (Human), UniProt P30872). The description is as above. The conditions noted are these: competitive binding vs 125I-Tyr-SRIF 14, human SSTR1 membranes; read-out: SST1. The method, then: as §1, with “Respective” for “Competitive radioligand binding experiments were performed using MEMBRANE TARGET Systems (Perkin-Elmer, Boston, Mass.) for human somatostatin receptors: SSTR1 (ES-520-M400UA), SSTR2A (ES-521-M400UA), SSTR3 (ES523-M400UA), SSTR4 (ES-524-M400UA) and SSTR5 (ES-522-M400UA) receptors. (See Table 1). Respective”, “Binding assays were performed using 1251-Tyr-SRIF 14 (Perkin-Elmer, NEX 3890) dissolved in 1 mM HCl.” left out

Assay [4] has as its target human somatostatin receptor SSTR5 (Homo sapiens (Human), UniProt P35346). The description is as above. The conditions noted are these: competitive binding vs 125I-Tyr-SRIF 14, human SSTR5 membranes; read-out: SST5. The method, then: as §1, with “Respective” for “Competitive radioligand binding experiments were performed using MEMBRANE TARGET Systems (Perkin-Elmer, Boston, Mass.) for human somatostatin receptors: SSTR1 (ES-520-M400UA), SSTR2A (ES-521-M400UA), SSTR3 (ES523-M400UA), SSTR4 (ES-524-M400UA) and SSTR5 (ES-522-M400UA) receptors. (See Table 1). Respective”, “Binding assays were performed using 1251-Tyr-SRIF 14 (Perkin-Elmer, NEX 3890) dissolved in 1 mM HCl.” left out

Assay [5] has as its target CHO-K1 cells expressing human somatostatin SSTR4 (Homo sapiens (Human), UniProt P31391). In words: Inhibition of forskolin stimulated cAMP, TR-FRET LANCE assay. The class given is cell-based. The settings on record: against 5 μM forskolin. The method, then:
Measurement of forskolin stimulated inhibition of cAMP was performed via time-resolved fluorescence resonance energy transfer (TR-FRET) LANCE assay (AD0262, PerkinElmer Life Science, Inc., Boston Mass.). […] LANCE cAMP assay was performed per manufacture instruction with assessment of respective compound, somatostatin-28 (Sigma-Aldrich Co., St. Louis, Mo.) as control agonist, against 5 μM forskolin, performed in triplicate across concentration curve. […] Data was calculated via GraphPad PRISM-5 software.
(In general: TR-FRET usually uses a lanthanide donor and a delayed reading to cut background.)

Molecules are shown by their SMILES. Some results are limits rather than exact numbers.

human somatostatin receptor SSTR2A, sequence (P30874 whole entry): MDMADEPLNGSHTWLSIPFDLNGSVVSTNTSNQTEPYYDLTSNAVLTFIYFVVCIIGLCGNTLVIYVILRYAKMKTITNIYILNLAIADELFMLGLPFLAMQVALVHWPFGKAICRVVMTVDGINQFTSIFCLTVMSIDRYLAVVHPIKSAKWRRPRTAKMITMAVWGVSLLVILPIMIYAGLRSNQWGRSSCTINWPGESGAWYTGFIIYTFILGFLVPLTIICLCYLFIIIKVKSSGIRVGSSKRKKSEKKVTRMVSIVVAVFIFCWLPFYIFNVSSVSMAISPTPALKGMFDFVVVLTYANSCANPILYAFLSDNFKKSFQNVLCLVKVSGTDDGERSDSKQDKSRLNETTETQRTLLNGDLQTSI
CHO-K1 cells expressing human somatostatin SSTR4, sequence (P31391 whole entry): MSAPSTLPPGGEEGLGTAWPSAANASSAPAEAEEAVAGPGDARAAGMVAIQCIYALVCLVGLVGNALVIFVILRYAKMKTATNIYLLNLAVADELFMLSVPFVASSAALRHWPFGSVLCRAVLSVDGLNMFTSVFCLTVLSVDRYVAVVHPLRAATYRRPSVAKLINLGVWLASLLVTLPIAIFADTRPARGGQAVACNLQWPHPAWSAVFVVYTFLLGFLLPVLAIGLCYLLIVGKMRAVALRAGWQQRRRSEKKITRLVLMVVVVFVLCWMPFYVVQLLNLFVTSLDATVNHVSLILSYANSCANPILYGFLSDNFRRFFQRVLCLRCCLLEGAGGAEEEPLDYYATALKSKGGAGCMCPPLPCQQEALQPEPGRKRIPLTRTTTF

As for `COc1ccc(Cc2nnc(Cc3c[nH]c4ccccc34)n2CCCc2c[nH]cn2)cc1` [SK-I-23, 3-((4-(3-(1H-imidazol-4-yl)propyl)-5-(4-methoxybenzyl)-4H-1,2,4-triazol-3-yl)methyl)-1H-indole], the Ki was over 10 µM in assay [1], over 10 µM in assay [2], 2580 nM in assay [3] and over 10 µM in assay [4].

For the compound `c1ccc(Cc2nnc(Cc3c[nH]c4ccccc34)n2CCCc2c[nH]cn2)cc1` [SK-I-25, 3-((4-(3-(1H-imidazol-4-yl)propyl)-5-benzyl-4H-1,2,4-triazol-3-yl)methyl)-1H-indole], the Ki was 0.0017 µM in assay [1] and over 10 µM in assay [2]. For the same compound, it took 2.03 nM to reach a half-maximal effect in assay [5] (EC50).

As to `COc1ccc2[nH]cc(Cc3nnc(Cc4ccccc4)n3CCCc3c[nH]cn3)c2c1` [SK-I-53, 3-((4-(3-(1H-imidazol-4-yl)propyl)-5-benzyl-4H-1,2,4-triazol-3-yl)methyl)-5-methoxy-1H-indole], the Ki in assay [1] was over 10 µM; in assay [2], 7.1 µM; in assay [3], 1720 nM; in assay [4] it was over 10 µM.

Turning to `COc1ccc2[nH]cc(Cc3nnc(Cc4ccc(F)cc4)n3CCCc3c[nH]cn3)c2c1` [SK-I-55, 3-((4-(3-(1H-imidazol-4-yl)propyl)-5-(4-fluorobenzyl)-4H-1,2,4-triazol-3-yl)methyl)-5-methoxy-1H-indole], the Ki is over 10 µM in assay [1], 5.43 µM in assay [2], 1030 nM in assay [3] and over 10 µM in assay [4].

`COc1ccc(Cc2nnc(Cc3c[nH]c4ccc(OC)cc34)n2CCCc2c[nH]cn2)cc1` [SK-I-56, 3-((4-(3-(1H-imidazol-4-yl)propyl)-5-(4-methoxybenzyl)-4H-1,2,4-triazol-3-yl)methyl)-5-methoxy-1H-indole]: the Ki is over 10 µM in assay [1], over 10 µM in assay [2], 1010 nM in assay [3] and over 10 µM in assay [4].

Regarding `COc1ccc2[nH]cc(Cc3nnc(Cc4cccc(C(F)(F)F)c4)n3CCCc3c[nH]cn3)c2c1` [SK-I-57, 3-((4-(3-(1H-imidazol-4-yl)propyl)-5-(3-(trifluoromethyl)benzyl)-4H-1,2,4-triazol-3-yl)methyl)-5-methoxy-1H-indole], the Ki in assay [1] was 1.13 µM; in assay [2], 1.69 µM; in assay [3], 365 nM; in assay [4], over 10 µM.

Regarding `Fc1ccc(Cc2nnc(Cc3c[nH]c4cc(F)ccc34)n2CCCc2c[nH]cn2)cc1` [SK-I-91, 3-((4-(3-(1H-imidazol-4-yl)propyl)-5-(4-fluorobenzyl)-4H-1,2,4-triazol-3-yl)methyl)-6-fluoro-1H-indole], the Ki was over 10 µM in assay [1], 3.97 µM in assay [2], 468 nM in assay [3] and over 10 µM in assay [4].

As for `COc1ccc(Cc2nnc(Cc3c[nH]c4cc(F)ccc34)n2CCCc2c[nH]cn2)cc1` [SK-I-105, 3-((4-(3-(1H-imidazol-4-yl)propyl)-5-(4-methoxybenzyl)-4H-1,2,4-triazol-3-yl)methyl)-6-fluoro-1H-indole], the Ki in assay [1] was over 10 µM; in assay [2] it was 5.3 µM; in assay [3], 1080 nM; in assay [4] it was over 10 µM.

Take `CC(C)(C)Cc1nnc(Cc2c[nH]c3cc(F)ccc23)n1CCCc1c[nH]cn1` [SK-I-119, 3-((4-(3-(1H-imidazol-4-yl)propyl)-5-neopentyl-4H-1,2,4-triazol-3-yl)methyl)-6-fluoro-1H-indole]: the Ki is over 10 µM in assay [1], over 10 µM in assay [2], 4340 nM in assay [3] and over 10 µM in assay [4].

Regarding `Fc1ccc2c(Cc3nnc(Cc4c[nH]c5cc(F)ccc45)n3CCCc3c[nH]cn3)c[nH]c2c1` [SK-I-124, 3,3′-((4-(3-(1H-imidazol-4-yl)propyl)-4H-1,2,4-triazol-3,5-diyl)bis(methylene))bis(6-fluoro-1H-indole)], the Ki is 1.74 µM in assay [1], 0.64 µM in assay [2], 97.8 nM in assay [3] and over 10 µM in assay [4].

With `c1ccc(Cc2nnc(CCc3c[nH]c4ccccc34)n2CCCc2c[nH]cn2)cc1` [SM-I-26, 3-(2-(4-(3-(1H-Imidazol-4-yl)propyl)-5-benzyl-4H-1,2,4-triazol-3-yl)ethyl)-1H-indole], the Ki in assay [1] is over 10 µM; in assay [2], over 10 µM; in assay [3] it was over 10000 nM; in assay [4], over 10 µM.

Consider `Fc1cccc(Cc2nnc(CCc3c[nH]c4ccccc34)n2CCCc2c[nH]cn2)c1` [SM-I-38, 3-(2-(4-(3-(1H-Imidazol-4-yl)propyl)-5-(3-fluorobenzyl)-4H-1,2,4-triazol-3-yl)ethyl)-1H-indole], for which the Ki in assay [1] was over 10 µM; in assay [2] it was over 10 µM; in assay [3], over 10000 nM; in assay [4], over 10 µM.

Regarding `Brc1cccc(Cc2nnc(CCc3c[nH]c4ccccc34)n2CCCc2c[nH]cn2)c1` [SM-I-50, 3-(2-(4-(3-(1H-Imidazol-4-yl)propyl)-5-(3-bromobenzyl)-4H-1,2,4-triazol-3-yl)ethyl)-1H-indole], the Ki in assay [1] is over 10 µM; in assay [2], over 10 µM; in assay [3] it was 4740 nM; in assay [4], over 10 µM.

Take `Fc1cc(F)cc(Cc2nnc(CCc3c[nH]c4ccccc34)n2CCCc2c[nH]cn2)c1` [SM-I-55, 3-(2-(4-(3-(1H-Imidazol-4-yl)propyl)-5-(3,5-difluorobenzyl)-4H-1,2,4-triazol-3-yl)ethyl)-1H-indole]: the Ki is over 10 µM in assay [1], over 10 µM in assay [2], over 10000 nM in assay [3] and over 10 µM in assay [4].

Regarding `Cn1cc(CCc2nnc(Cc3ccc(Cl)c(Cl)c3)n2CCCc2c[nH]cn2)c2ccccc21` [SM-I-60, 3-(2-(4-(3-(1H-Imidazol-4-yl)propyl)-5-(3,4-dichlorobenzyl)-4H-1,2,4-triazol-3-yl)ethyl)-1-methyl-1H-indole], the Ki was 6.99 µM in assay [1], over 10 µM in assay [2], 3170 nM in assay [3] and over 10 µM in assay [4].
